According to PubChem BioAssay (NCI):
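GI50: concentration for 50% inhibition of growth. TGI denotes the concentration required for complete inhibition of growth.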

How the values were obtained:
Experiment in all cases: NCI-60 cell line screen, 384-well format
MALME-3M melanoma = test system: MALME-3M melanoma
OVCAR-8 ovarian = test system: OVCAR-8 ovarian
HS 578T breast = test system: HS 578T breast
EKVX NSCLC = test system: EKVX NSCLC
A498 renal = test system: A498 renal
HOP-92 NSCLC = test system: HOP-92 NSCLC
SR leukemia = test system: SR leukemia
MOLT-4 leukemia = test system: MOLT-4 leukemia
HL-60(TB) leukemia = test system: HL-60(TB) leukemia
SK-OV-3 ovarian = test system: SK-OV-3 ovarian
NCI-H460 NSCLC = test system: NCI-H460 NSCLC
BT-549 breast = test system: BT-549 breast
NCI-H322M lung = test system: NCI-H322M lung

N#Cc1c(N)nc(N)nc1N[C@H](c1nc2c(F)ccc(Cl)c2c(=O)n1-c1cccnc1)C1CC1
GI50 (MALME-3M melanoma): > 39.9 µM
TGI (MALME-3M melanoma): > 100 µM
GI50 (OVCAR-8 ovarian): 13.4 µM
TGI (OVCAR-8 ovarian): 32.7 µM
GI50 (HS 578T breast): 1.79 µM
TGI (HS 578T breast): 15.4 µM
GI50 (EKVX NSCLC): 2.63 µM
TGI (EKVX NSCLC): 17.6 µM
GI50 (A498 renal): 0.445 µM
TGI (A498 renal): 3.11 µM
GI50 (HOP-92 NSCLC): 0.677 µM
TGI (HOP-92 NSCLC): 14.3 µM
GI50 (SR leukemia): 10.5 µM
TGI (SR leukemia): 22.5 µM
GI50 (MOLT-4 leukemia): 1.54 µM
TGI (MOLT-4 leukemia): 3.94 µM
GI50 (HL-60(TB) leukemia): 1.13 µM
TGI (HL-60(TB) leukemia): 7.85 µM
GI50 (SK-OV-3 ovarian): 4.36 µM
TGI (SK-OV-3 ovarian): 37.5 µM
GI50 (NCI-H460 NSCLC): 5.48 µM
TGI (NCI-H460 NSCLC): > 100 µM
GI50 (BT-549 breast): 0.711 µM
TGI (BT-549 breast): 12.9 µM
GI50 (NCI-H322M lung): 14.9 µM
TGI (NCI-H322M lung): > 80.1 µM
